Source: PubChem BioAssay AID2060606 (Molecular Pharmacology Branch, DTP, NCI, 2025)
Several values for one entry are separate records, joined by “and”; a condition that tells them apart may be missing. Identical values can stand only once.

Test system: 922993-354-T-J3-PDC complex spheroids, viability, % test/control
Assay: Anticancer human tumor 922993-354-T-J3-PDC patient-derived endometrial carcinoma cell line growth inhibition [CLK]
Conditions: for viability, T/C: stronger effect = lower value
Summary of the method: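 Patient-derived tumor cells grown as complex spheroids with HUVEC endothelial cells and mesenchymal stem cells, treated with drug combinations. Concentrations descend in half-log steps from near clinical Cmax, or from 10 microM if Cmax unknown.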
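Also: spheroids exposed to the agents for 7 days before readout.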

Compound `CCc1c2c(nc3ccc(O)cc13)-c1cc3c(c(=O)n1C2)COC(=O)[C@]3(O)CC` + CNC(=O)c1ccc(Nc2nc(OC3CCCC3)c3c(-c4ccc5nc(C)oc5c4)c[nH]c3n2)c(OC)c1 has an IC50 (curve of first compound, second compound 0.0316 µM) of 19.5 nM, an IC50 (curve of first compound, second compound 0.1 µM) of 22.9 nM and an IC50 (curve of first compound, second compound 0.316 µM) of 16.6 nM. For the same compound, the IC50 (curve of first compound, second compound 1 µM) was less than 3.16 nM, the IC50 (curve of first compound, second compound 3.16 µM) was less than 3.16 nM and the IC50 (curve of first compound, second compound 10 µM) was less than 3.16 nM. The viability, T/C (second compound 0.0316 µM, first compound 0.00316 µM) was 101%, the viability, T/C (second compound 0.0316 µM, first compound 0.01 µM) was 85.3% and the viability, T/C (second compound 0.0316 µM, first compound 0.0316 µM) was 24.8%. It also gave a viability, T/C (second compound 0.0316 µM, first compound 0.1 µM) of 15.1%, a viability, T/C (second compound 0.0316 µM, first compound 0.316 µM) of 22.3% and a viability, T/C (second compound 0.0316 µM, first compound 1 µM) of 25.9%. The viability, T/C (second compound 0.1 µM, first compound 0.00316 µM) was 99.2%, the viability, T/C (second compound 0.1 µM, first compound 0.01 µM) was 79.2% and the viability, T/C (second compound 0.1 µM, first compound 0.0316 µM) was 40.6%. It also gave a viability, T/C (second compound 0.1 µM, first compound 0.1 µM) of 15.1%, a viability, T/C (second compound 0.1 µM, first compound 0.316 µM) of 20.7% and a viability, T/C (second compound 0.1 µM, first compound 1 µM) of 29.9%. It also gave a viability, T/C (second compound 0.316 µM, first compound 0.00316 µM) of 64.2%, a viability, T/C (second compound 0.316 µM, first compound 0.01 µM) of 63.4% and a viability, T/C (second compound 0.316 µM, first compound 0.0316 µM) of 32.6%. For the same compound, the viability, T/C (second compound 0.316 µM, first compound 0.1 µM) was 16%, the viability, T/C (second compound 0.316 µM, first compound 0.316 µM) was 21.4% and the viability, T/C (second compound 0.316 µM, first compound 1 µM) was 31.4%. The viability, T/C (second compound 1 µM, first compound 0.00316 µM) was 32.1%, the viability, T/C (second compound 1 µM, first compound 0.01 µM) was 39.8% and the viability, T/C (second compound 1 µM, first compound 0.0316 µM) was 13.2%. For the same compound, the viability, T/C (second compound 1 µM, first compound 0.1 µM) was 13.6%, the viability, T/C (second compound 1 µM, first compound 0.316 µM) was 20.3% and the viability, T/C (second compound 1 µM, first compound 1 µM) was 18.5%. It also gave a viability, T/C (second compound 3.16 µM, first compound 0.00316 µM) of 34.4%, a viability, T/C (second compound 3.16 µM, first compound 0.01 µM) of 28.1% and a viability, T/C (second compound 3.16 µM, first compound 0.0316 µM) of 14.6%. For the same compound, the viability, T/C (second compound 3.16 µM, first compound 0.1 µM) was 13.8%, the viability, T/C (second compound 3.16 µM, first compound 0.316 µM) was 17.4% and the viability, T/C (second compound 3.16 µM, first compound 1 µM) was 17.7%. For the same compound, the viability, T/C (second compound 10 µM, first compound 0.00316 µM) was 30%, the viability, T/C (second compound 10 µM, first compound 0.01 µM) was 21.8% and the viability, T/C (second compound 10 µM, first compound 0.0316 µM) was 12.6%. The viability, T/C (second compound 10 µM, first compound 0.1 µM) was 14.6%, the viability, T/C (second compound 10 µM, first compound 0.316 µM) was 16.5% and the viability, T/C (second compound 10 µM, first compound 1 µM) was 17.6%.

For `CC(CO)NC(=O)c1cc(-c2ccc(Cl)cc2)nn(-c2cnn(C)c2)c1=O` (centres undefined), the viability, T/C (compound 0.0316 µM) was 107% and 97.1%, the viability, T/C (compound 0.1 µM) was 106% and 87.2% and the viability, T/C (compound 0.316 µM) was 98% and 86%. The viability, T/C (compound 1 µM) was 97.1% and 81.7%, the viability, T/C (compound 3.16 µM) was 102% and 95.1% and the viability, T/C (compound 10 µM) was 74.8% and 64.1%. It also gave an IC50 (curve of compound) greater than 10000 nM.
